Assay results published in ChEMBL document CHEMBL6178017, “Intercepting the Downstream of the Estrogen Receptor Signaling Pathway: Discovery of a Potent and Efficient SRC-3 PROTAC Degrader for Overcoming Endocrine Resistance Breast Cancer” (J Med Chem, 2025).
Active and inactive are the calls of the source. The rule behind the calls is not given here.

Experiments:
[1] = target: T1, Protein cereblon/Nuclear receptor coactivator 3 (Homo sapiens, UniProt Q9Y6Q9+Q96SW2); test: PROTAC activity at CRBN/SRC-3 in human MCF7 cells assessed as induction of ER-alpha degradation at 1 uM incubated for 24 hrs by immunoblot analysis relative to control; format: cell-based
MCF7 [2] = test: Antiproliferative activity against human MCF7 cells harboring ER-alpha D538G mutant assessed as inhibition of cell growth by CCK8 assay; format: functional, cell-based
[3] = target: T1, Protein cereblon/Nuclear receptor coactivator 3; test: PROTAC activity at CRBN/SRC-3 in human MCF7 cells assessed as induction of SRC-3 degradation at 1 uM incubated for 24 hrs by immunoblot analysis relative to control; format: cell-based
MCF7 [4] = test: Antiproliferative activity against human MCF7 cells harboring ER-alpha Y537S mutant assessed as inhibition of cell growth by CCK8 assay; format: functional, cell-based
MCF7 [5] = test: Antiproliferative activity against human MCF7 cells assessed as inhibition of cell growth by CCK8 assay; format: functional, cell-based
[6] = Antiproliferative activity against tamoxifen-resistant human LCC2 cells assessed as inhibition of cell growth by CCK8 assay; format: functional, cell-based
[7] = target: T2, von Hippel-Lindau disease tumor suppressor/Nuclear receptor coactivator 3 (Homo sapiens) (UniProt Q9Y6Q9+P40337); test: PROTAC activity at VHL/SRC-3 in human MCF7 cells assessed as induction of SRC-3 degradation at 1 uM incubated for 24 hrs by immunoblot analysis relative to control; format: cell-based
[8] = target: T2, von Hippel-Lindau disease tumor suppressor/Nuclear receptor coactivator 3 (Homo sapiens); test: PROTAC activity at VHL/SRC-3 in human MCF7 cells assessed as induction of […] degradation at 1 uM incubated for 24 hrs by immunoblot analysis relative to control; format: cell-based
MCF-10A = test: Cytotoxicity against human MCF-10A cells assessed as cell growth by CCK-8 assay; format: toxicity, cell-based
[9] = target: T1, Protein cereblon/Nuclear receptor coactivator 3; test: PROTAC activity at CRBN/SRC-3 in human MCF7 cells assessed as maximal induction of SRC-3 degradation at 1 uM incubated for 36 hrs by immunoblot analysis; format: cell-based
[10] = target: T1, Protein cereblon/Nuclear receptor coactivator 3; test: PROTAC activity at CRBN/SRC-3 in tamoxifen-resistant human LCC2 cells assessed as maximal induction of SRC-3 degradation at 1 uM incubated for 36 hrs by immunoblot analysis; format: cell-based; conditions: Tamoxifen-resistant LCC2 cell
[11] = Induction of apoptosis in tamoxifen-resistant human LCC2 cells assessed as late apoptotic cells incubated for 48 hrs by AnnexinV-FITC/PI staining based flow cytometry (reference value: 4.83%); format: functional, Tamoxifen-resistant LCC2 cell
Mus musculus = test: In vivo PROTAC activity at CRBN/SRC-3 in Balb/c mouse xenografted with tamoxifen-resistant human LCC2 cells assessed as induction of SRC-3 degradation in tumor tissues at 5 uM/Kg, ip administered once every 2 days for 23 days and measured on day 25 by western blot analysis; format: functional, organism-based; conditions: time 25.0 day
MCF7 [12] = test: Induction of ER-alpha degradation in human MCF7 cells at 1 uM incubated for 24 hrs by immunoblot analysis relative to control; format: cell-based
[13] = Induction of apoptosis in tamoxifen-resistant human LCC2 cells assessed as viable cells incubated for 48 hrs by AnnexinV-FITC/PI staining based flow cytometry (reference value: 88.09%); format: functional, Tamoxifen-resistant LCC2 cell
[14] = Induction of apoptosis in tamoxifen-resistant human LCC2 cells assessed as early apoptotic cells incubated for 48 hrs by AnnexinV-FITC/PI staining based flow cytometry (reference value: 5.92%); format: functional, Tamoxifen-resistant LCC2 cell
MCF7 [15] = test: Induction of SRC-3 degradation in human MCF7 cells at 1 uM incubated for 24 hrs by immunoblot analysis relative to control; format: cell-based
[16] = Induction of apoptosis in tamoxifen-resistant human LCC2 cells assessed as necrotic cells incubated for 48 hrs by AnnexinV-FITC/PI staining based flow cytometry (reference value: 1.16%); format: functional, Tamoxifen-resistant LCC2 cell
[17] = Metabolic stability of the compound in human plasma measured after 2 hrs by LC-MS/MS analysis; format: ADME, cell-free; conditions: read-out: Stability
[18] = Half life of the compound in human plasma by LC-MS/MS analysis; format: ADME, cell-free
[19] = test system: Tamoxifen-resistant LCC2 cell; test: Antitumor activity against tamoxifen-resistant human LCC2 cells xenografted in Balb/c mouse assessed as inhibition of tumor growth at 3 uM/Kg, ip administered once every 2 days for 23 days; format: functional, organism-based; conditions: time 23.0 day
LNCaP = test: Antiproliferative activity against human LNCaP cells assessed as inhibition of cell growth by CCK-8 assay; format: functional, cell-based

T2 sequence (P40337 whole entry, looked up): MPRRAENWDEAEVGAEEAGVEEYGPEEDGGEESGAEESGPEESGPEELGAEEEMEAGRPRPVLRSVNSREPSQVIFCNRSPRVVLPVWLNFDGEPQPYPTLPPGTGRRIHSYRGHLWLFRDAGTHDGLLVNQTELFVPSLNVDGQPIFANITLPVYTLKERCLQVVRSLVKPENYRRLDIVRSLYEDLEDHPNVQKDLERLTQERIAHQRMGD
T2 sequence (Q9Y6Q9 whole entry, looked up): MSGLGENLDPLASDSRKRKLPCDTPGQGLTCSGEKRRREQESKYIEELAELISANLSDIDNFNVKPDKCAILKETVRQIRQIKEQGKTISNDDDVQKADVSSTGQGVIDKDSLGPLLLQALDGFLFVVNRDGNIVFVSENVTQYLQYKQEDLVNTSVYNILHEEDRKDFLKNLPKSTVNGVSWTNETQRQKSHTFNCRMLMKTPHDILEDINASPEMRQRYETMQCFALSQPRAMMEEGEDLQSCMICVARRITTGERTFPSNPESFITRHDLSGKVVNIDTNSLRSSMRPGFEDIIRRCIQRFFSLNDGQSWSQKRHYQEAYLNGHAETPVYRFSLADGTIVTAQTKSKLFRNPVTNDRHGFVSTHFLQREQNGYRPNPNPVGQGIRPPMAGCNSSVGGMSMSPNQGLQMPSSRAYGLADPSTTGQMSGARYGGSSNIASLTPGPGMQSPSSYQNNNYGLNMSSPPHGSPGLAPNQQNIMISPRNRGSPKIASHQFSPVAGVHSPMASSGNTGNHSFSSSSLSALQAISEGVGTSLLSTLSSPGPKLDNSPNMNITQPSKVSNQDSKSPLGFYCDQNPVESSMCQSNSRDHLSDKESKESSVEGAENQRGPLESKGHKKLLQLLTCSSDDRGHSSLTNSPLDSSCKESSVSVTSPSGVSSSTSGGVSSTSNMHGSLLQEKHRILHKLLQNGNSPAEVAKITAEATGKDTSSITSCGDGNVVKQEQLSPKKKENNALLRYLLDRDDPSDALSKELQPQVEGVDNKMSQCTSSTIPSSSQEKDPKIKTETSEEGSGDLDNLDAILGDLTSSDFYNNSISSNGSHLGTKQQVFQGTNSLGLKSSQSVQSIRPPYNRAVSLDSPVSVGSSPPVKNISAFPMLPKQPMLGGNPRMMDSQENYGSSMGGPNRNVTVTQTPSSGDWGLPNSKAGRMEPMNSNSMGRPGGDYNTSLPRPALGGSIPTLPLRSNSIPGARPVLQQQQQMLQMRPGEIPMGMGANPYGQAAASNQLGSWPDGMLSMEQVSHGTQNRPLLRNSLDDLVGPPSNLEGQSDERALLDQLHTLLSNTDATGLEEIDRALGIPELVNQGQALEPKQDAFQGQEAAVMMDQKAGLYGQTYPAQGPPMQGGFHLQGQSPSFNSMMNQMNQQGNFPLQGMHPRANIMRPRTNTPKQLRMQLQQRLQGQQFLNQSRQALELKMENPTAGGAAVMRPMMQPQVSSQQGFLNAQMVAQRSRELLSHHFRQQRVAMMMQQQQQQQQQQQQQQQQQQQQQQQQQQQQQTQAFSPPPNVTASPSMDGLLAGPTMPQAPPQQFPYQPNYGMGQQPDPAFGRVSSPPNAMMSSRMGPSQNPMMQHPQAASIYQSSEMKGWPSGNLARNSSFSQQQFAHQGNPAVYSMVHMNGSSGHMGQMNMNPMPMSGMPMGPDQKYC
T1 sequence (Q96SW2 whole entry partner): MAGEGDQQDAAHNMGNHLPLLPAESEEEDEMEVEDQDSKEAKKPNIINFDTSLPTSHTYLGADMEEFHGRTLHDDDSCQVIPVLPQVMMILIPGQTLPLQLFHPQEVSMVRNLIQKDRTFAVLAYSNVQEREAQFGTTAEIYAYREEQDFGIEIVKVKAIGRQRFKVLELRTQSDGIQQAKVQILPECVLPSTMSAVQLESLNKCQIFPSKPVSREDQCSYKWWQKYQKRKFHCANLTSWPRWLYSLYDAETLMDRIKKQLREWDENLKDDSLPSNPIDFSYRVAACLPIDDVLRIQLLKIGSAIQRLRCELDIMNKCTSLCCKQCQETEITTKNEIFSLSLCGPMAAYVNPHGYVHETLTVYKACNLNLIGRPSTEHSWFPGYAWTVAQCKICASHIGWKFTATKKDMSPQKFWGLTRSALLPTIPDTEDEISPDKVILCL
T1 sequence (Q9Y6Q9 2-1424 limits assumed): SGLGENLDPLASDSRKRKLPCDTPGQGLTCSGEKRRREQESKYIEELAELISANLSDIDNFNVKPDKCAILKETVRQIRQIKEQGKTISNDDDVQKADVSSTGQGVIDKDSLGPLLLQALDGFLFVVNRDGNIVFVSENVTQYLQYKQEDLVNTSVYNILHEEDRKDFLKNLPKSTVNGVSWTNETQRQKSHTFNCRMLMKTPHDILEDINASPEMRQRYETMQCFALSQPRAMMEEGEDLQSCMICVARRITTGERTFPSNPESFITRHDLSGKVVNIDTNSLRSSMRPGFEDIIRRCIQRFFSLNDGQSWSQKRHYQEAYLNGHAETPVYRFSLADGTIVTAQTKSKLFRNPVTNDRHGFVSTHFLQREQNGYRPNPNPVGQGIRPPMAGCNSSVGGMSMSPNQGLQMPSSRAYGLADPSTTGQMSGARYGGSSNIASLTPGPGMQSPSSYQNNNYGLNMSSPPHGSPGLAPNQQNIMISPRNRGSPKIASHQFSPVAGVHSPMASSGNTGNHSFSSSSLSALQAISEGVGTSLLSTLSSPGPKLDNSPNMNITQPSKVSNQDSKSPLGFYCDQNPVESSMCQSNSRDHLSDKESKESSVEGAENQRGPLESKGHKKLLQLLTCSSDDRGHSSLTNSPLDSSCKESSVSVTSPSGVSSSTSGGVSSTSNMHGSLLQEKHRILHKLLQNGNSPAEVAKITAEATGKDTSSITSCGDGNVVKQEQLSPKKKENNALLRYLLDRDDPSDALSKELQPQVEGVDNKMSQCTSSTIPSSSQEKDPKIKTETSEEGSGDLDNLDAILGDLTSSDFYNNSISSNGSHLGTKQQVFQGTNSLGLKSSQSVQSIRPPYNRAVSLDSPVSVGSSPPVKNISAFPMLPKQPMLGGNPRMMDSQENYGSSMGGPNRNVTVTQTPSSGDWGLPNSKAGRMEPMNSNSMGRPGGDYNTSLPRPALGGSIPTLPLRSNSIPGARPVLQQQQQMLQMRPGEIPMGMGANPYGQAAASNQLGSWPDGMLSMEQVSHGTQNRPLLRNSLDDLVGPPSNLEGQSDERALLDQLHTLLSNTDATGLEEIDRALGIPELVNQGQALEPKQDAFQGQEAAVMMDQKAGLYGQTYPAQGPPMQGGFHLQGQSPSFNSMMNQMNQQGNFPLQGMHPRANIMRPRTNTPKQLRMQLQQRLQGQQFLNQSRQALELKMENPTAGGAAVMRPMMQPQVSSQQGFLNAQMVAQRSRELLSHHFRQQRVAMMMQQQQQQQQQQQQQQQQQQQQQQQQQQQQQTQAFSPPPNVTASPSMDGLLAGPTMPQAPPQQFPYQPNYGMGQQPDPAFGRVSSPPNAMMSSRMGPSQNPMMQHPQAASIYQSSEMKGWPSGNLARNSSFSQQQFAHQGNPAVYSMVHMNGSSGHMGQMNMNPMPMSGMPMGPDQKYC

| Compound | Activity [1] | IC50 (MCF7 [2]) [µM] | Activity [3] | IC50 (MCF7 [4]) [µM] | IC50 (MCF7 [5]) [µM] | IC50 [6] [µM] | other results |
| --- | --- | --- | --- | --- | --- | --- | --- |
| C/C(=N\Nc1nc2ccccc2n1C1CN(c2ccc3c(c2)C(=O)N(C2CCC(=O)NC2=O)C3=O)C1)c1ccccn1 (stereo not drawn) | inactive | 0.96 | 10% | 0.68 | 0.32 | 4.94 |  |
| C/C(=N\Nc1nc2ccccc2n1CCNC(=O)CCCCCCCN[C@H](C(=O)N1C[C@H](O)C[C@H]1C(=O)N[C@@H](C)c1ccc(-c2scnc2C)cc1)C(C)(C)C)c1ccccn1 |  | 0.45 |  | 0.36 | 0.52 | 1.94 | Activity [7]: 56%; Activity [8]: 38%; Activity (MCF-10A): Non-toxic |
| C/C(=N\Nc1nc2ccccc2n1C1CN(c2cccc3c2C(=O)N(C2CCC(=O)NC2=O)C3=O)C1)c1ccccn1 (stereo not drawn) | 16% | 0.52 | 17% | 0.1 | 9.39 | 3.36 |  |
| C/C(=N\Nc1nc2ccccc2n1CCNC(=O)CCCCCN[C@H](C(=O)N1C[C@H](O)C[C@H]1C(=O)N[C@@H](C)c1ccc(-c2scnc2C)cc1)C(C)(C)C)c1ccccn1 |  | 2.53 |  | 2.75 | 1.59 | 7.14 | Activity [7]: 8%; Activity [8]: 15%; Activity (MCF-10A): Non-toxic |
| CC/C(=C(\c1ccc(O)cc1)c1ccc(OCCN(C)C)cc1)c1ccccc1 [AFIMOXIFENE] |  | 8.57 |  | 18.8 | 0.38 | 26.5 |  |
| C/C(=N\Nc1nc2ccccc2n1C1CN(C2CCN(c3cccc4c3C(=O)N(C3CCC(=O)N(C)C3=O)C4=O)CC2)C1)c1ccccn1 (stereo not drawn) |  |  |  |  |  |  | Activity [9]: inactive; Activity [10]: inactive |
| C/C(=N\Nc1nc2ccccc2n1CC1CCN(c2ccc3c(c2)C(=O)N(C2CCC(=O)NC2=O)C3=O)CC1)c1ccccn1 (stereo not drawn) | 34% | 1.52 | 28% | 0.36 | 1.13 | 5.1 |  |
| C/C(=N\Nc1nc2ccccc2n1CC1CCN(CC(=O)N[C@H](C(=O)N2C[C@H](O)C[C@H]2C(=O)N[C@@H](C)c2ccc(-c3scnc3C)cc2)C(C)(C)C)CC1)c1ccccn1 |  | 0.69 |  | 0.94 | 0.69 | 2.76 | Activity [7]: 21%; Activity [8]: 10%; Activity (MCF-10A): Non-toxic |
| C/C(=N\Nc1nc2ccccc2n1CCNC(=O)CCCCCCN[C@H](C(=O)N1C[C@H](O)C[C@H]1C(=O)N[C@@H](C)c1ccc(-c2scnc2C)cc1)C(C)(C)C)c1ccccn1 |  | 1.04 |  | 0.83 | 0.47 | 3.7 | Activity [7]: 62%; Activity [8]: 43%; Activity (MCF-10A): Non-toxic |
| C/C(=N\Nc1nc2ccccc2n1C1CN(C(=O)C2CN(c3cccc4c3C(=O)N(C3CCC(=O)NC3=O)C4=O)C2)C1)c1ccccn1 (stereo not drawn) | 5% | 11.8 | inactive | 19.1 | 8.24 | 14.8 |  |
| C[C@]12CC[C@@H]3c4ccc(O)cc4C[C@@H](CCCCCCCCC[S+]([O-])CCCC(F)(F)C(F)(F)F)[C@H]3[C@@H]1CC[C@@H]2O (stereo partly drawn) [FULVESTRANT] |  | 0.58 |  | 6.15 | 0.22 | 0.47 | Activity [11]: 12.06%; Activity (Mus musculus): inactive; Activity (MCF7 [12]): 86%; Activity [13]: 69.81%; Activity [14]: 15.07%; Activity (MCF7 [15]): inactive; Activity [16]: 3.06% |
| C/C(=N\Nc1nc2ccccc2n1CCNC(=O)CN1CCC2(CC1)CCN(c1ccc3c(c1)C(=O)N(C1CCC(=O)NC1=O)C3=O)CC2)c1ccccn1 (stereo not drawn) | inactive | 6.99 | inactive | 7.2 | 5.59 | 7.99 |  |
| C/C(=N\Nc1nc2ccccc2n1CC1CCN(C(=O)CCCCCCCNc2cccc3c2CN(C2CCC(=O)NC2=O)C3=O)CC1)c1ccccn1 (stereo not drawn) | 39% | 1.26 | 32% | 0.93 | 0.84 | 5.03 |  |
| C/C(=N\Nc1nc2ccccc2n1CC1CN(c2ccc3c(c2)C(=O)N(C2CCC(=O)NC2=O)C3=O)C1)c1ccccn1 (stereo not drawn) | 15% | 0.29 | inactive | 0.32 | 0.37 | 3.11 |  |
| C/C(=N\Nc1nc2ccccc2n1C)c1ccccn1 |  | 0.77 |  | 0.004 | 0.47 | 0.6 | remaining at 2 h [17]: > 50%; half-life [18]: 2.17 h; Activity (MCF7 [12]): 86%; Activity (MCF7 [15]): 53% |
| CC/C(=C(\c1ccccc1)c1ccc(OCCN(C)C)cc1)c1ccccc1 |  |  |  |  |  |  | Activity [19]: inactive |
| C/C(=N\Nc1nc2ccccc2n1CCNC(=O)CN1CCC(CN2CCN(c3ccc4c(c3)C(=O)N(C3CCC(=O)NC3=O)C4=O)CC2)CC1)c1ccccn1 (stereo not drawn) | 30% | 0.85 | 23% | 0.5 | 1.23 | 8.74 |  |
| C/C(=N\Nc1nc2ccccc2n1CCNC(=O)CCCCCCCCCCN[C@H](C(=O)N1C[C@H](O)C[C@H]1C(=O)N[C@@H](C)c1ccc(-c2scnc2C)cc1)C(C)(C)C)c1ccccn1 |  | 0.41 |  | 0.16 | 0.08 | 1.06 | Activity [7]: 62%; Activity [8]: 62%; Activity (MCF-10A): Non-toxic |
| CCN(CC)CCOC(=O)c1ccc(N)cc1 [PROCAINE] |  |  |  |  |  |  | half-life [18]: 0.0303 h |
| C/C(=N\Nc1nc2ccccc2n1C1CN(C(=O)C2CCN(c3cccc4c3C(=O)N(C3CCC(=O)NC3=O)C4=O)CC2)C1)c1ccccn1 (stereo not drawn) | 15% | 1.73 | 29% | 0.75 | 4.88 | 5.85 |  |
| C/C(=N\Nc1nc2ccccc2n1CCNC(=O)C1CC2(CCN(c3ccc4c(c3)C(=O)N(C3CCC(=O)NC3=O)C4=O)CC2)C1)c1ccccn1 (stereo not drawn) | inactive | 1.11 | 5% | 1.06 | 2.94 | 8.63 |  |
| C/C(=N\Nc1nc2ccccc2n1CCNC(=O)CCCCCCCCCN[C@H](C(=O)N1C[C@H](O)C[C@H]1C(=O)N[C@@H](C)c1ccc(-c2scnc2C)cc1)C(C)(C)C)c1ccccn1 |  | 0.35 |  | 0.13 | 0.09 | 1.11 | Activity [7]: 63%; Activity [8]: 61%; Activity (MCF-10A): Non-toxic |
| C/C(=N\Nc1nc2ccccc2n1CC1CN(c2cccc3c2C(=O)N(C2CCC(=O)NC2=O)C3=O)C1)c1ccccn1 (stereo not drawn) | 26% | 0.56 | 15% | 0.13 | 2.97 | 6.28 |  |
| C/C(=N\Nc1nc2ccccc2n1CCNC(=O)CCCCCCCCN[C@H](C(=O)N1C[C@H](O)C[C@H]1C(=O)N[C@@H](C)c1ccc(-c2scnc2C)cc1)C(C)(C)C)c1ccccn1 |  | 0.36 |  | 0.15 | 0.06 | 0.75 | IC50 (LNCaP): 1.43 µM; Activity [7]: 68%; Activity [8]: 65%; Activity (MCF-10A): Non-toxic |
